{"source": "ChEMBL document CHEMBL5150074", "about": "“Structure-Based Design of a Dual-Targeted Covalent Inhibitor Against Papain-like and Main Proteases of SARS-CoV-2” (J Med Chem, 2022)", "key": {"[1]": {"assay": "Binding affinity to SARS-CoV-2 MPro C145A mutant assessed as dissociation constant by isothermal titration calorimetry assay", "design": "species or system Severe acute respiratory syndrome coronavirus 2"}, "[2]": {"assay": "Binding affinity to SARS-CoV-2 PLpro C111A mutant assessed as dissociation constant by isothermal titration calorimetry assay", "design": "species or system Severe acute respiratory syndrome coronavirus 2"}}, "data": [{"smiles": "Cl.O=C1C=C(Nc2ccccc2N2CCNCC2)C2=NS(=O)(=O)c3cccc1c32", "values": [{"measurement": "Kd", "setting": "[1]", "result": 1.5, "unit": "µM"}, {"measurement": "Kd", "setting": "[2]", "result": 2.3, "unit": "µM"}]}]}
